Assay results taken from patent publication US20260034094A1, “COMPOSITIONS AND METHODS FOR INDUCING FERROPTOSIS” (Kojin Therapeutics, Inc., priority 2022, published 2026).

Each compound was assayed on RKN cells (assay: RKN cell profiling assay (cell viability, CellTiter-Glo)). Conditions: 96 h, 96 h exposure, read-out: Cell Killing EC50.
Format: cell-based
Procedure: RKN cells were suspended in assay medium (F-12 medium supplemented with 10% FBS and penicillin/streptomycin) and seeded at 1,000 cells per well (30 μL total volume) in opaque white 384-well plates (Corning). Cells were allowed to adhere for 24 h at 37° C. (95% humidity, 5% CO2) and then exposed to compounds disclosed herein for 72 h, or in the present case, 96 h. DMSO stock solutions of compounds were added to cells using a D300e Digital Dispenser (Tecan). The final DMSO concentration in each well was normalized to 0.5% (v/v) after compound treatment. Cell viability was measured using CellTiter-Glo (Promega). After incubation for 15 min at room temperature, luminescence was measured using a PHERAstar FSX microplate reader (BMG Labtech). Ferroptosis rescue experiments were performed as described previously using cells treated with ferrostatin-1 (fer-1, 1.5 μM) when seeding assay plates. Dose-response data were analyzed to determine EC50 values with GraphPad Prism 9 software using a four-parameter logistic equation or CDD Vault (Collaborative Drug Discovery) using the Levenberg-Marquardt algorithm.

| Structure (SMILES) | EC50 |
| --- | --- |
| N=S(=O)(CCc1cccc(Cl)c1F)CC[C@H](N)C(=O)O (some centres unmarked) [Compound 28] | ≥ 1000 µM |
| CC(C)(C)CCS(=N)(=O)CC[C@H](N)C(=O)OC(C)(C)C (some centres unmarked) [Compound 96] | ≥ 1000 µM |
| CCCCS(=N)(=O)CC[C@H](N)C(=O)NC (some centres unmarked) [Compound 107] | ≥ 1000 µM |
| CC(C)(C)CCS(=N)(=O)CC[C@H](N)C(=O)Nc1nccs1 (some centres unmarked) [Compound 121] | ≥ 1000 µM |
| N[C@@H](CC[S@@](=O)(CCCC(F)(F)F)=NP(=O)(O)O)C(=O)O [Compound 138, (S)-2-amino-4-((S)-4,4,4-trifluoro-N-phosphonobutylsulfonimidoyl)butanoic acid] | < 1000 µM |
| CCCCS(=N)(=O)CC[C@H](N)c1nnn[nH]1 (stereo partly drawn) [Compound 200, (1S)-3-(butylsulfonimidoyl)-1-(1H-tetrazol-5-yl)propan-1-amine] | ≥ 1000 µM |

Same assay, conditions: cell viability, read-out: Cell Killing EC50

| Structure (SMILES) | EC50 |
| --- | --- |
| N=S(=O)(CCC(c1ccc(-c2ccccc2Cl)cc1)C(F)(F)F)CC[C@H](N)C(=O)O (single isomer, unassigned) [Compound 219] | ≥ 1000 µM |
| N=[S@](=O)(CC[C@H](N)C(=O)O)CCC(O)(c1ccccc1)C(F)(F)F (single isomer, unassigned) [Compound 346] | ≥ 1000 µM |
| N=S(=O)(CCC(c1ccc(-c2ccccc2F)cc1)C(F)(F)F)CC[C@H](N)C(=O)O (some centres unmarked) [Compound 217] | < 1000 µM |
| N=S(=O)(CCC(c1ccc(-c2ccccc2Cl)cc1)C(F)(F)F)CC[C@H](N)C(=O)O (some centres unmarked) [Compound 220] | < 1000 µM |
| N=S(=O)(CCC(c1ccc(-c2ccccc2Cl)cc1)C(F)(F)F)CC[C@H](N)C(=O)O (some centres unmarked) [Compound 221] | < 1000 µM |
| N=S(=O)(CCC(c1ccc(C2CC2)cc1)C(F)(F)F)CC[C@H](N)C(=O)O (some centres unmarked) [Compound 225] | < 1000 µM |
| N=S(=O)(CCC(c1ccc(-c2ccc(Br)cc2)cc1)C(F)(F)F)CC[C@H](N)C(=O)O (some centres unmarked) [Compound 226] | < 1000 µM |
| N=S(=O)(CCC(c1ccc(-c2cn[nH]c2)cc1)C(F)(F)F)CC[C@H](N)C(=O)O (some centres unmarked) [Compound 227] | ≥ 1000 µM |
| N=S(=O)(CCC(c1ccc(-c2cc[nH]n2)cc1)C(F)(F)F)CC[C@H](N)C(=O)O (some centres unmarked) [Compound 228] | ≥ 1000 µM |
| N=S(=O)(CCC(c1ccc(-c2cccc(C(N)=O)c2)cc1)C(F)(F)F)CC[C@H](N)C(=O)O (some centres unmarked) [Compound 229] | ≥ 1000 µM |
| CNC(=O)c1cccc(-c2ccc(C(CCS(=N)(=O)CC[C@H](N)C(=O)O)C(F)(F)F)cc2)c1 (some centres unmarked) [Compound 230] | ≥ 1000 µM |
| N=S(=O)(CCC(c1ccc(-c2ccc(C(F)F)cc2)cc1)C(F)(F)F)CC[C@H](N)C(=O)O (some centres unmarked) [Compound 231] | < 1000 µM |
| N=S(=O)(CCC(c1ccc(-c2ccccc2O)cc1)C(F)(F)F)CC[C@H](N)C(=O)O (some centres unmarked) [Compound 235] | < 1000 µM |
| CC(C)(O)c1cccc(-c2ccc(C(CCS(=N)(=O)CC[C@H](N)C(=O)O)C(F)(F)F)cc2)c1 (some centres unmarked) [Compound 241] | ≥ 1000 µM |
| N=S(=O)(CCC(c1ccc(-c2cccnc2)cc1)C(F)(F)F)CC[C@H](N)C(=O)O (some centres unmarked) [Compound 243] | ≥ 1000 µM |
| N=S(=O)(CCC(c1ccc(-c2ccc(C(N)=O)nc2)cc1)C(F)(F)F)CC[C@H](N)C(=O)O (some centres unmarked) [Compound 245] | ≥ 1000 µM |
| Cc1ccc(-c2ccc(C(CCS(=N)(=O)CC[C@H](N)C(=O)O)C(F)(F)F)cc2)cn1 (some centres unmarked) [Compound 246] | ≥ 1000 µM |
| Cc1nc(Cl)ccc1-c1ccc(C(CCS(=N)(=O)CC[C@H](N)C(=O)O)C(F)(F)F)cc1 (some centres unmarked) [Compound 248] | < 1000 µM |
| CN1CCN(c2ccc(-c3ccc(C(CCS(=N)(=O)CC[C@H](N)C(=O)O)C(F)(F)F)cc3)cn2)CC1 (some centres unmarked) [Compound 249] | ≥ 1000 µM |
| N=S(=O)(CCC(c1ccc(-c2cnc(N)nc2)cc1)C(F)(F)F)CC[C@H](N)C(=O)O (some centres unmarked) [Compound 251] | ≥ 1000 µM |
| N=S(=O)(CCC(c1ccc(-c2cnc(C3CC3)nc2)cc1)C(F)(F)F)CC[C@H](N)C(=O)O (some centres unmarked) [Compound 252] | ≥ 1000 µM |

| Structure (SMILES) | EC50 |
| --- | --- |
| N=S(=O)(CCC(c1ccc(-c2cnc3[nH]ccc3c2)cc1)C(F)(F)F)CC[C@H](N)C(=O)O (some centres unmarked) [Compound 253] | < 1000 µM |
| N=S(=O)(CCC(c1ccc(-c2cnc3[nH]ncc3c2)cc1)C(F)(F)F)CC[C@H](N)C(=O)O (some centres unmarked) [Compound 254] | ≥ 1000 µM |
| N=S(=O)(CCC(c1ccc(-c2ccc3cn[nH]c3c2)cc1)C(F)(F)F)CC[C@H](N)C(=O)O (some centres unmarked) [Compound 255] | ≥ 1000 µM |
| N=S(=O)(CCC(c1ccc(-c2ccc(Cl)s2)cc1)C(F)(F)F)CC[C@H](N)C(=O)O (some centres unmarked) [Compound 256] | < 1000 µM |
| N=S(=O)(CCC(c1ccc(-c2ccsc2)cc1)C(F)(F)F)CC[C@H](N)C(=O)O (some centres unmarked) [Compound 257] | < 1000 µM |
| N=S(=O)(CCC(c1ccc(-c2ccoc2)cc1)C(F)(F)F)CC[C@H](N)C(=O)O (some centres unmarked) [Compound 258] | < 1000 µM |
| N=S(=O)(CCC(c1ccc(C2=CCNCC2)cc1)C(F)(F)F)CC[C@H](N)C(=O)O (some centres unmarked) [Compound 259] | ≥ 1000 µM |
| C=C(c1ccc(C(CCS(=N)(=O)CC[C@H](N)C(=O)O)C(F)(F)F)cc1)C(F)(F)F (some centres unmarked) [Compound 260] | ≥ 1000 µM |
| C=Cc1ccc(C(CCS(=N)(=O)CC[C@H](N)C(=O)O)C(F)(F)F)cc1 (some centres unmarked) [Compound 261] | < 1000 µM |
| C=C(C)c1ccc(C(CCS(=N)(=O)CC[C@H](N)C(=O)O)C(F)(F)F)cc1 (some centres unmarked) [Compound 262] | < 1000 µM |
| CC(C)(O)c1ccc(C(CCS(=N)(=O)CC[C@H](N)C(=O)O)C(F)(F)F)cc1 (some centres unmarked) [Compound 263] | ≥ 1000 µM |
| COc1ccccc1-c1ccc(C(CCS(=N)(=O)CC[C@H](N)C(=O)O)C(F)(F)F)cc1 (some centres unmarked) [Compound 264] | < 1000 µM |
| Cc1ccccc1-c1ccc(C(CCS(=N)(=O)CC[C@H](N)C(=O)O)C(F)(F)F)cc1 (some centres unmarked) [Compound 265] | < 1000 µM |
| CC(C)c1ccccc1-c1ccc(C(CCS(=N)(=O)CC[C@H](N)C(=O)O)C(F)(F)F)cc1 (some centres unmarked) [Compound 266] | < 1000 µM |
| N=S(=O)(CCC(c1ccc(-c2ccccc2C(F)(F)F)cc1)C(F)(F)F)CC[C@H](N)C(=O)O (some centres unmarked) [Compound 267] | < 1000 µM |
| COc1ccc(-c2ccc(C(CCS(=N)(=O)CC[C@H](N)C(=O)O)C(F)(F)F)cc2)c(Cl)c1 (some centres unmarked) [Compound 268] | < 1000 µM |
| N=S(=O)(CCC(c1ccc(-c2ccc(Cl)cc2Cl)cc1)C(F)(F)F)CC[C@H](N)C(=O)O (some centres unmarked) [Compound 269] | < 1000 µM |
| N=S(=O)(CCC(c1ccc(-c2ccc(O)cc2Cl)cc1)C(F)(F)F)CC[C@H](N)C(=O)O (some centres unmarked) [Compound 270] | < 1000 µM |
| N=S(=O)(CCC(c1ccc(-c2ccc(F)cc2Cl)cc1)C(F)(F)F)CC[C@H](N)C(=O)O (some centres unmarked) [Compound 271] | < 1000 µM |
| C#Cc1ccc(C(CCS(=N)(=O)CC[C@H](N)C(=O)O)C(F)(F)F)cc1 (some centres unmarked) [Compound 272] | < 1000 µM |
| N=S(=O)(CCC(c1cccc(C#Cc2ccccc2)c1)C(F)(F)F)CC[C@H](N)C(=O)O (some centres unmarked) [Compound 273] | ≥ 1000 µM |

| Structure (SMILES) | EC50 |
| --- | --- |
| Cc1cc(Cl)ccc1-c1ccc(C(CCS(=N)(=O)CC[C@H](N)C(=O)O)C(F)(F)F)cc1 (some centres unmarked) [Compound 275] | < 1000 µM |
| Cc1ccc(-c2ccc(C(CCS(=N)(=O)CC[C@H](N)C(=O)O)C(F)(F)F)cc2)c(Cl)c1 (some centres unmarked) [Compound 276] | < 1000 µM |
| N=S(=O)(CCC(c1ccc(-c2ccc(Cl)cc2)cc1)C(F)(F)F)CC[C@H](N)C(=O)O (some centres unmarked) [Compound 277] | < 1000 µM |
| Cc1cc(F)ccc1-c1ccc(C(CCS(=N)(=O)CC[C@H](N)C(=O)O)C(F)(F)F)cc1 (some centres unmarked) [Compound 278] | < 1000 µM |
| Cc1ccc(-c2ccc(C(CCS(=N)(=O)CC[C@H](N)C(=O)O)C(F)(F)F)cc2)c(C)c1 (some centres unmarked) [Compound 280] | < 1000 µM |
| N=S(=O)(CCC(c1ccc(-c2ccc(F)cc2O)cc1)C(F)(F)F)CC[C@H](N)C(=O)O (some centres unmarked) [Compound 281] | < 1000 µM |
| N=S(=O)(CCC(c1ccc(-c2ccc(Cl)cc2O)cc1)C(F)(F)F)CC[C@H](N)C(=O)O (some centres unmarked) [Compound 282] | < 1000 µM |
| Cc1cc(Cl)ccc1-c1cccc(C(CCS(=N)(=O)CC[C@H](N)C(=O)O)C(F)(F)F)c1 (some centres unmarked) [Compound 283] | ≥ 1000 µM |
| Cc1ccc(-c2cccc(C(CCS(=N)(=O)CC[C@H](N)C(=O)O)C(F)(F)F)c2)c(F)c1 (some centres unmarked) [Compound 284] | ≥ 1000 µM |
| Cc1ccc(-c2cccc(C(CCS(=N)(=O)CC[C@H](N)C(=O)O)C(F)(F)F)c2)cc1 (some centres unmarked) [Compound 285] | ≥ 1000 µM |
| Cc1cccc(-c2cccc(C(CCS(=N)(=O)CC[C@H](N)C(=O)O)C(F)(F)F)c2)c1 (some centres unmarked) [Compound 286] | ≥ 1000 µM |
| N=S(=O)(CCC(c1cccc(-c2cccc(F)c2)c1)C(F)(F)F)CC[C@H](N)C(=O)O (some centres unmarked) [Compound 287] | ≥ 1000 µM |
| N=S(=O)(CCC(c1cccc(-c2ccc(Cl)cc2Cl)c1)C(F)(F)F)CC[C@H](N)C(=O)O (some centres unmarked) [Compound 288] | ≥ 1000 µM |
| Cc1ccc(-c2cccc(C(CCS(=N)(=O)CC[C@H](N)C(=O)O)C(F)(F)F)c2)cc1F (some centres unmarked) [Compound 290] | ≥ 1000 µM |
| N=S(=O)(CCC(c1ccc(S(=O)(=O)Cc2ccccc2)cc1)C(F)(F)F)CC[C@H](N)C(=O)O (some centres unmarked) [Compound 291] | ≥ 1000 µM |
| N=S(=O)(CCC(c1cccc2ccccc12)C(F)(F)F)CC[C@H](N)C(=O)O (some centres unmarked) [Compound 311] | < 1000 µM |
| N=S(=O)(CCC(c1ccccn1)C(F)(F)F)CC[C@H](N)C(=O)O (some centres unmarked) [Compound 313] | < 1000 µM |
| N=S(=O)(CCC(c1ccc(-c2ccccc2)cc1Cl)C(F)(F)F)CC[C@H](N)C(=O)O (some centres unmarked) [Compound 315] | ≥ 1000 µM |
| N=S(=O)(CCC(c1ccc(Oc2ccccc2)cc1)C(F)(F)F)CC[C@H](N)C(=O)O (some centres unmarked) [Compound 316] | < 1000 µM |
| N=S(=O)(CCC(c1ccc(-c2ccc(Cl)cc2Cl)cn1)C(F)(F)F)CC[C@H](N)C(=O)O (some centres unmarked) [Compound 317] | < 1000 µM |
